Measured values published in ChEMBL document CHEMBL1136564, “Sordaricin antifungal agents” (2003).
In brackets after ≈: the same amount, converted by molar mass. Activity calls are given as the source filed them. The rule behind the calls is not given here.

How the values were obtained:
[1] = In vitro therapeutic index (calculated as CC50/MIC (Candida albicans)).; format: functional
Nakaseomyces glabratus = experiment: Minimum inhibitory concentration required to inhibit 90 to 100% visible growth of Candida glabrata; format: functional
Candida albicans = experiment: Minimum inhibitory concentration to inhibit 90 to 100% visible growth of Candida albicans; format: functional
HEp-2 [2] = experiment: In vitro cytotoxic concentration against Hep2 cells.; format: functional; conditions: Homo sapiens
HEp-2 [3] = experiment: Cytotoxic concentration against Hep2 cells; activation observed, but IC50 could not be determined; format: functional, cell-based; conditions: Homo sapiens

Row | MIC (Nakaseomyces glabratus) [µg/mL] | MIC (Candida albicans) [µg/mL] | SMILES | Therapeutic index [1] | CC50 (HEp-2 [2]) [µg/mL] | CC50 (HEp-2 [3])
1 | 16 (≈ 36.1 µM) | 0.5 (≈ 1.13 µM) | CC(C)C1=CC2CC3(C=O)[C@@H]4CC[C@@H](C)[C@H]4CC2(C(O)CCC2CCCCC2)[C@]13C(=O)O (stereo partly drawn) | 3 | 1.5 (≈ 3.39 µM) | –
2 | > 128 | 0.5 (≈ 1.13 µM) | CC(C)C1=CC2CC3(C=O)[C@@H]4CC[C@@H](C)[C@H]4CC2(C(=O)CCC2CCCCC2)[C@]13C(=O)O | 3.6 | 1.8 (≈ 4.09 µM) | –
3 | 64 (≈ 159 µM) | 16 (≈ 39.7 µM) | CC(C)CCC(O)C12C[C@@H]3[C@H](C)CC[C@H]3C3(C=O)CC1C=C(C(C)C)[C@@]23C(=O)O (stereo partly drawn) | – | – | inactive
4 | 4 (≈ 8.84 µM) | 0.25 (≈ 0.552 µM) | CC(C)C1=CC2CC3(C=O)[C@@H]4CC[C@@H](C)[C@H]4CC2(C(O)C#CCC2CCCCC2)[C@]13C(=O)O (stereo partly drawn) | 42.8 | 10.7 (≈ 23.6 µM) | –
5 | 32 (≈ 77.6 µM) | 8 (≈ 19.4 µM) | CCCCC#CC(O)C12C[C@@H]3[C@H](C)CC[C@H]3C3(C=O)CC1C=C(C(C)C)[C@@]23C(=O)O (stereo partly drawn) | 2.3 | 18.3 (≈ 44.4 µM) | –
6 | 32 (≈ 76.8 µM) | 4 (≈ 9.6 µM) | CCCCCCC(O)C12C[C@@H]3[C@H](C)CC[C@H]3C3(C=O)CC1C=C(C(C)C)[C@@]23C(=O)O (stereo partly drawn) | 0.6 | 2.4 (≈ 5.76 µM) | –
7 | 1 (≈ 2.5 µM) | > 128 | CC(C)CCC(=O)C12C[C@@H]3[C@H](C)CC[C@H]3C3(C=O)CC1C=C(C(C)C)[C@@]23C(=O)O | < 0.02 | 2.5 (≈ 6.24 µM) | –
8 | 1 (≈ 2.34 µM) | 0.5 (≈ 1.17 µM) | CC(C)C1=CC2CC3(C=O)[C@@H]4CC[C@@H](C)[C@H]4CC2(C(=O)CC2CCCCC2)[C@]13C(=O)O | 3.6 | 1.8 (≈ 4.22 µM) | –
9 | 8 (≈ 18.8 µM) | 1 (≈ 2.34 µM) | CC(C)CCC#CC(O)C12C[C@@H]3[C@H](C)CC[C@H]3C3(C=O)CC1C=C(C(C)C)[C@@]23C(=O)O (stereo partly drawn) | 15.8 | 15.8 (≈ 37 µM) | –
10 | 0.25 (≈ 0.57 µM) | < 0.06 | CC(C)CCCC#CC(=O)C12C[C@@H]3[C@H](C)CC[C@H]3C3(C=O)CC1C=C(C(C)C)[C@@]23C(=O)O | > 23.3 | 1.4 (≈ 3.19 µM) | –
11 | 32 (≈ 74.3 µM) | 1 (≈ 2.32 µM) | CC(C)CCCCC(O)C12C[C@@H]3[C@H](C)CC[C@H]3C3(C=O)CC1C=C(C(C)C)[C@@]23C(=O)O (stereo partly drawn) | 1.2 | 1.2 (≈ 2.79 µM) | –
12 | > 128 | 0.5 (≈ 1.17 µM) | CC(C)CCCCC(=O)C12C[C@@H]3[C@H](C)CC[C@H]3C3(C=O)CC1C=C(C(C)C)[C@@]23C(=O)O | 5 | 2.5 (≈ 5.83 µM) | –
13 | 0.125 (≈ 0.286 µM) | < 0.06 | CC(C)C1=CC2CC3(C=O)[C@@H]4CC[C@@H](C)[C@H]4CC2(C(=O)C#CCC2CCCC2)[C@]13C(=O)O | > 15 | 0.9 (≈ 2.06 µM) | –
14 | 8 (≈ 18.7 µM) | 2 (≈ 4.67 µM) | CC(C)C1=CC2CC3(C=O)[C@@H]4CC[C@@H](C)[C@H]4CC2(C(O)CC2CCCCC2)[C@]13C(=O)O (stereo partly drawn) | 1.6 | 3.1 (≈ 7.23 µM) | –
15 | 0.5 (≈ 1.22 µM) | < 0.06 | CCCCC#CC(=O)C12C[C@@H]3[C@H](C)CC[C@H]3C3(C=O)CC1C=C(C(C)C)[C@@]23C(=O)O | > 55 | 3.3 (≈ 8.04 µM) | –
16 | 0.5 (≈ 1.11 µM) | < 0.06 | CC(C)C1=CC2CC3(C=O)[C@@H]4CC[C@@H](C)[C@H]4CC2(C(=O)C#CCC2CCCCC2)[C@]13C(=O)O | > 23.3 | 1.4 (≈ 3.11 µM) | –
